# From patent publication US20120322060A1, “DIAGNOSIS AND MONITORING TREATMENT OF PSYCHIATRIC DISEASES WITH SPADIN AND RELATED METHODS” (CENTRE NATIONAL DE LE RECHERCHE SCIENTIFIQUE - CNRS -, priority 2011, published 2012)
# “Also recorded” adds a separate entry of the source. No end group written: not given here.
# B1: spadin (peptide)
# peptide: APLPRWSGPIGVSWGLR
# Experiments:
# mice [1] = assay: Novelty-Suppressed Feeding test (NSF); format: in vivo, mouse; details: 4 days; spadin i.v. 10^-6 M, fluoxetine i.p. 3 mg/kg
# Protocol: NSF paradigm is a conflict test that elicits competing motivations: the drive to eat and the fear of venturing into the center of a bright arena. Latency to begin eating is used as an index of anxiety- and depression-like behavior. After 4 day treatment (saline or spadin, i.v.) and 24 hours food-deprivation, mice were presented with a food pellet placed in the center of a brightly plastic box (50×50×20 cm). Latency to begin eating was measured as previously described.
# mice [2] = assay: Tail Suspension Test (TST); format: in vivo, mouse; details: subchronic, 4 days; spadin i.v. 10^-6 M, fluoxetine 3 mg/kg
# Protocol: Mice were suspended by the tail. […] The immobility time was recorded during a 6 min test session.
# TREK-1 [3] = molecular target: T1, TREK-1 (Mus musculus, UniProt P97438); assay: Whole-cell patch-clamp on CA3 pyramidal neurons in hippocampus brain slices; format: cell-based; parameters: a cellular network that endogenously expresses both TREK-1 and NTSR3/Sortilin; from tissue; host or cells: mouse hippocampal brain slices, CA3 pyramidal neurons; details: wild-type CA3 neurons, no aa
# T1 sequence (P97438 1-426): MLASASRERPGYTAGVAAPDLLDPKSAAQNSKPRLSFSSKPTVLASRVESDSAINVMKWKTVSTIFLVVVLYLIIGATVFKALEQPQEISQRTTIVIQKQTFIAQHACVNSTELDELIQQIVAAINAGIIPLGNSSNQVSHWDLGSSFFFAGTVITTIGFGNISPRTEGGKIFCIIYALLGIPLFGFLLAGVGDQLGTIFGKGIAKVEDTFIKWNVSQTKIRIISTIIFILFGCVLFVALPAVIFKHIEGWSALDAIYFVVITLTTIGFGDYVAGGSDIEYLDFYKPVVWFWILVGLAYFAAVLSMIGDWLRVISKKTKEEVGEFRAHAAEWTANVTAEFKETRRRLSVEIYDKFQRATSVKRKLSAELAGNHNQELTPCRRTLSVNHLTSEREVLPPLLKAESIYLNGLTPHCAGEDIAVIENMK
# mice [4] = assay: Corticosterone assay after tube restraint stress; format: in vivo, mouse; details: 30 min after 10 min tube restraint; spadin i.p. 10^-5 M
# Protocol: Mice were individually housed for at least 12 hours before blood sample collection. Serum samples, collected in the morning were obtained by retroorbital puncture before and 30 min after the end of a 10-min tube restraint. Levels of corticosterone were measured by radioimmunoassay using a commercially available kit (MP Biomedicals).
# [5] = system: dentate gyrus of the mouse hippocampus; assay: Hippocampal neurogenesis (BrdU / DCX labeling); format: in vivo
# Protocol: Twenty-four hours after the injection of BrdU (120 mg per kg of body weight in a 300 μl bolus), mice were euthanized and transcardially perfused with 4% cold paraformaldehyde. Serial sections of the brains were cut (40 μm) throughout the entire hippocampus on a vibratome (Leica). Every sixth section throughout the hippocampus was processed for BrdU or doublecortin (DCX) immunohistochemistry, as previously described. For each immunodetection, slides were first incubated overnight at 4° C. with a mouse monoclonal anti-BrdU antibody (1:200; Becton-Dickinson) or a goat anti-DCX (1:400, Santa Cruz Laboratories). For chromogenic immunodetection, sections were then incubated for 1 hour in biotin-conjugated species-specific secondary antibodies (1:100; Vector Laboratories) followed by a peroxidase-avidin complex solution according to the manufacturer's protocol. The peroxidase activity of immune complexes was visualized with DAB staining using the VectaStain ABC kit (Vector Laboratories). For fluorescent double-labeling, performed to determine the cell phenotype, sections were incubated overnight at 4° C. with anti-sheep BrdU (1:200, Interchim), anti-goat DCX (1:200, Santa Cruz Laboratories), or an anti-GFAP (Glial Fibrillary acidic protein, marker for astrocytes, 1:250, Dako). […] All BrdU-labeled cells in the granular cell layer and subgranular zone (SGZ) were counted in each section (n=10 and 5 mice per group) at 400× and 1000× magnification under a light microscope (Olympus) by an experimenter blinded to the study code. The total number of BrdU-positive cells per section was multiplied by 6 to obtain the total number of cells per dentate gyrus. The counting of BrdU/DCX labeled cells was performed using a Laser Scanning Confocal Microscope (TCS SP, Leica) equipped with a DMIRBE inverted microscope.
# mice [6] = assay: Porsolt Forced Swim Test (FST) in mice; format: in vivo, mouse
# Protocol: Mice (Janvier, France) were placed individually in cylinders (height: 30 cm, diameter: 15 cm) filled with 12 cm deep water (temperature: 22±1° C.) for 6 min. The total period of immobility was recorded during the last 4 min.
# TREK-1 [7] = molecular target: T1, TREK-1; assay: Whole-cell patch-clamp on cultured pyramidal neurons from hippocampus; format: cell-based; parameters: endogenous in cells; host or cells: primary hippocampal pyramidal neurons from newborn mice; details: 20 μM fluoxetine
# Protocol: A, Cultured pyramidal neuron from hippocampus, with on top, the patch-clamp pipette. Neurons were chosen according to their morphology. B, Current recorded in response to ramps of potential obtained in the various conditions indicated (aa: arachidonic acid: 10 μM, Spadin: 1[…]μM, Fluoxetine: 20 μM). Neurons were recorded in the whole-cell configuration of the patch-clamp technique. In voltage-clamp, ramps of potential from −90 mV to 70 mV were applied every 10 sec. The % variation of the current amplitude was always measured at −50 mV. The currents were recorded in response to such ramps in control conditions and in the presence of a cocktail of potassium blockers suitable to isolate the TREK currents (10 mM tetraethyl ammonium (TEA), 3 mM 4-aminopyridine (4-AP), 50 nM charybdotoxin, 10 μM glibenclamide, 100 nM apamin). […] The blocks were reversible. C, Time course of spadin and fluoxetine effects. Applications are indicated by the horizontal bars.
# Cortical neurons were prepared from 14 old mouse embryos whereas hippocampal neurons were prepared from new born mice. Briefly, dissected brain areas were dissociated and neurons were plated on polylysine-treated 35 or 60 mm dishes and maintained in culture in Neurobasal medium supplemented with B27, Glutamax and antibiotics for 2 to 3 weeks before to be used for electrophsysiological or biochemical experiments.
# TREK-1 [8] = molecular target: T1, TREK-1; assay: Whole-cell patch-clamp on TREK-1 transfected COS-7 cells; format: cell-based; parameters: GFP; expressed in transfected cells; host or cells: COS-7 (DEAE-dextran transfection); details: after 90 sec of application
# Protocol: All electrophysiological experiments were done on COS-7 cells seeded at a density of 20,000 cells/35-mm dish 24 h before transfection. Cells were transfected by the classical DEAE-dextran method with TREK-1-GFP plasmids (0.1 μg/μL). Cells were visualized 48-72 h after transfection using fluorescence.
# The whole-cell patch-clamp technique was used to evaluate TREK-1 potassium channel current by using a RK 400 patch-clamp amplifier (Axon Instruments, U.S.A.), as previously described. Currents were lowpass filtered at 3 kHz, digitized at 10 kHz using a 12-bit analog-to-digital converter. […] The bath solution contained (in mM): 150 NaCl, 5 KCl, 3 MgCl2, 1 CaCl2, and 10 HEPES, adjusted to pH 7.4 with NaOH; the patch pipette solution contained (in mM): 155 KCl, 3 MgCl2, 5 EGTA, and 10 HEPES, adjusted to pH 7.2 with KOH. Cells were clamped at −80 mV and voltage changes were either applied by ramp (from −100 to 50 mV, 1 s in duration) or by step (from −100 to 40 mV, 1.5 s in duration). Cells were continuously superfused with a microperfusion system. The pipette capacitance was not subtracted from total membrane capacitance and there was no leak substraction. All experiments were done at room temperature (21° C. to 22° C.) and in the presence of a cocktail of potassium channel inhibitors (K^+ blockers: 10 mM tetraethyl ammonium (TEA), 3 mM 4-aminopyridine (4-AP), 50 nM charybdotoxin, 10 μM glibenclamide, 100 nM apamin).
# Pclamp software was used to analyze currents recorded in the whole-cell mode measured at 0 mV. Results are expressed as means±SD. To obtain the IC50 value for dose-dependent inhibition, experimental data were fitted with a standard sigmoidal function.
# TREK-1 [9] = molecular target: T1, TREK-1; assay: Competition with 125I-spadin for binding to TREK-1 transfected COS-7 cell homogenates; parameters: expressed in transfected cells; host or cells: COS-7 (DEAE-dextran transfection); details: TREK-1 transfected COS-7 homogenates, read-out: affinity for TREK-1
# Protocol: Experiments were performed using COS-7 cells (10^6 cells per diameter 100 dish) transfected with TREK-1 (2 μg/dish) in the presence or in the absence of NTSR3/sortilin (2 μg/dish) using the DEAE-dextran protocol.
# Incubations were terminated by addition of 2 ml of ice-cold binding buffer followed by filtration through cellulose acetate filters (Sartorius, Göttingen, Germany) and washing twice with 2 ml of ice-cold buffer. Radioactivity on filters was counted with a gamma-counter.
# [10] = molecular target: NTSR3/Sortilin (endogenous, C13NJ microglial cell line); assay: cell-based or functional assay
# Chain of NTSR3/Sortilin (endogenous, C13NJ microglial cell line) (Q99523 78-831): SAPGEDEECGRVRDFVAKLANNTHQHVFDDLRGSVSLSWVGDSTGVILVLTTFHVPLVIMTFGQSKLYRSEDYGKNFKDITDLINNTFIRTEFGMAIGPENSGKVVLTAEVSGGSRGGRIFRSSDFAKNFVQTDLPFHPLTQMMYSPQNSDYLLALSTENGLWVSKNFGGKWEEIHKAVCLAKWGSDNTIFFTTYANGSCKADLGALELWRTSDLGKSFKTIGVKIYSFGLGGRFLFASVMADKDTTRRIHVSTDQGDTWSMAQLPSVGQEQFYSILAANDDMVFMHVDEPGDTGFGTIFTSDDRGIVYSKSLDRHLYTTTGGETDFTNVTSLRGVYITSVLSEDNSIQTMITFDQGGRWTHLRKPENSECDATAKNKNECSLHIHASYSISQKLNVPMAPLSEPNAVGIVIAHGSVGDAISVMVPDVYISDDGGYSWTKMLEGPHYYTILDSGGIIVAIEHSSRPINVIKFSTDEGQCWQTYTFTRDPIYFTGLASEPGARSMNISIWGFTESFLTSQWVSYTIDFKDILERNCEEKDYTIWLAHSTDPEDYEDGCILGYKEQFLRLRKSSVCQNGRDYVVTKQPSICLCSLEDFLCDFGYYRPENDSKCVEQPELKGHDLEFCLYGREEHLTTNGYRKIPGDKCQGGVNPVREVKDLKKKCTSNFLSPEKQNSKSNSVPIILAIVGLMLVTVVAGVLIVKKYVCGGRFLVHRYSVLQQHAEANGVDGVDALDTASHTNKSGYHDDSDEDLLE
# [11] = molecular target: TREK-1 channel (expressed by transfection in COS-7 cells); assay: cell-based or functional assay
# Chain of TREK-1 channel (expressed by transfection in COS-7 cells) (O95069 whole entry): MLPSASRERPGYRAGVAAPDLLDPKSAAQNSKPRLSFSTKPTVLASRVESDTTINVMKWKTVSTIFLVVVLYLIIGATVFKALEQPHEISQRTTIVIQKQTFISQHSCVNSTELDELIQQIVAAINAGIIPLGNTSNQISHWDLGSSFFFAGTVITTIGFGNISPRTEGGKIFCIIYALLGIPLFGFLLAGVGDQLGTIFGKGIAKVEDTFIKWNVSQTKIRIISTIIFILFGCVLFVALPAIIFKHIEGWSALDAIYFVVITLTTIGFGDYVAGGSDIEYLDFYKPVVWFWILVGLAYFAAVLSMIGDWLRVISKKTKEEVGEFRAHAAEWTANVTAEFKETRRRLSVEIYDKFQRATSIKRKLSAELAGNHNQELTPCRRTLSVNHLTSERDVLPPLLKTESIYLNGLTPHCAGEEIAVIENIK
# [12] = molecular target: TREK-1 channel (expressed by transfection in COS-7 cells); assay: competition with 0.2 nM 125I-spadin on TREK-1 transfected COS-7 cell homogenates, filtration
# [13] = molecular target: NTSR3/Sortilin (endogenous, C13NJ microglial cell line); assay: competition with 0.2 nM 125I-NT on C13NJ cell homogenates, filtration
molecule,measurement,setting,value
"CNCCC(Oc1ccc(C(F)(F)F)cc1)c1ccccc1 (stereo not shown) [fluoxetine, Fluoxetine, reference compound]",latency to feed versus saline,mice [1],had no effect
same,reduction of time spent immobile,mice [2],had no effect; also recorded: without effect
same,"inhibition of the current recorded in presence of potassium blockers, substance alone",TREK-1 [3],13.0 ± 3.8%
same,reduction of stress-induced increase in corticosterone levels versus saline,mice [4],59.1%
same,number of BrdU-positive cells in the SGZ versus saline,"[5]; 4-day treatment, spadin i.p. 10^-5 M",had no effect
same,number of BrdU-positive cells versus saline,[5]; 15 days,significant increase
same,reduction of time of immobility,"mice [6]; chronic, 15 days, spadin 10^-6 M, fluoxetine 1 mg/kg",around 30%
same,reduction of time spent immobile,"mice [6]; subchronic, 4 days, spadin i.v. 10^-6 M, fluoxetine 3 mg/kg",had no effect; also recorded: without effect
same,block of arachidonic acid evoked current (putative TREK current),TREK-1 [7],fully blocked
"QDRLDAPPPPAAPLPR [N-terminal fragment Gln1-Arg16, reference compound]",inhibition of current increase induced by 10 μM aa,TREK-1 [8],unable to inhibit
same,Kd,TREK-1 [9],1000 nM
B1,C13NJ cell migration induced by 10 nM NT in the presence of 1 µM spadin (% of migration with 10% FCS),[10],6.2%
same,IC50 of dose-dependent inhibition of TREK-1 current at 0 mV,[11],70.7 nM
same,"block of arachidonic acid-stimulated TREK-1 current (whole-cell patch clamp, transfected COS-7 cells, 100 nM spadin)",[11],63%
same,affinity,[12],10 nM
same,affinity,[13],8 nM
